Measurements from patent US10590454B2, “Methods of preventing and removing trisulfide bonds” (Biogen MA Inc., priority 2011, dated 2020).

Columns and labels:
[1] = system: cysteine degradation (release of hydrogen sulfide); experiment: Release of hydrogen sulfide from cysteine-containing medium with inhibitors of cysteine degradation; details: cell-culture medium, inhibitor 17.7 mM (1:1 to cysteine), 24 hours
Procedure: In order to test the effect of cysteine degradation inhibitors on release of hydrogen sulfide in cell-culture medium, various inhibitors were added to the medium at the concentration of 17.7 mM, which represents a 1:1 ratio to the concentration of cysteine in the medium. Released hydrogen sulfide concentration was measured after 24 hours of incubation. Briefly, 50 ml of medium was incubated overnight in a closed 100 ml bottle. The headspace was therefore equal to the liquid volume of the container. A Jerome 631-X hydrogen sulfide detector was connected to a short piece of silicon tubing to minimize holdup volume in the instrument. The end of the tubing was inserted into the headspace of the medium-containing bottle, and the Jerome 631-X detector sampled the headspace immediately after opening the bottle.
The effect of pyruvate on release of hydrogen sulfide from cysteine degradation was further tested. The experiments were performed as described above in Example 9. Concentration of released hydrogen sulfide was measured after incubation from solutions containing 17.7 mM cysteine, plus 200 g/L glucose or subgroups of amino acids, in the absence or presence of pyruvate.
The effect of pyruvate on release of hydrogen sulfide from cysteine degradation was also tested in various cell-culture media, including feed liquid, IMDM and DMEM. All cysteine concentrations were normalized to that in the feed liquid. 17.7 mM pyruvate was added to the medium, which represents a 1:1 ratio of cysteine to pyruvate in the medium. The experiments were performed as described above for Example 9. […] Thus, pyruvate can reduce cysteine degradation and H2S release in a variety of compositions and decrease the number of trisulfide bonds.

[2] = Heat induced fragmentation, non-reducing capillary electrophoresis (CE-SDS); type: physicochemical; details: 70° C. for 3 minutes with iodoacetamide; compared to mAb-A-LT
Procedure: In these experiments, analysis of IgG1 mAb was performed by denaturing, non-reducing capillary electrophoresis in the presence of sodium dodecyl sulfate using an IgG Purity/Heterogeneity Assay Kit (# A10663) and ProteomeLab PA-800 instrument (Beckman Coulter). Samples (200 μg) were prepared by heating to 70° C. for 3 minutes in the presence of iodoacetamide, 1 mM SDS and a 10 kDa standard essentially as per manufacturer's instructions (Protocol A10424-AC) and separated for 35 min in a bare fused silica capillary with detection at 220 nm. The results, shown in FIGS. 1A and 1B show an increased level of fragmentation following sample preparation for non-reducing electrophoresis. The electrophoretic migration pattern of the single most abundant fragment was consistent with the loss of one light chain (L) from the intact mAb with the simultaneous generation of a species consisting of two heavy chains and one light chain (HHL fragment). This phenomenon was then used to rapidly screen for conditions that influence trisulfide content in IgG1 mAbs. In this screen, non-reducing electrophoresis was used as a rapid assay for detection of trisulfide bonds.

[3] = Differential scanning calorimetry; type: physicochemical; details: preparations with low or high H-L trisulfide or treated with 1 mM cysteine; 25° C. to 100° C.
Procedure: The DSC was performed using a MicroCal capillary VP-DSC system (Northampton, Mass., USA) with Origin VPViewer2000 v2.0.64 software. Sample concentration was 0.5 mg/mL in 50 mM sodium phosphate, 100 mM NaCl, pH 6.0. Thermograms were generated by scanning temperature from 25° C. to 100° C. at a rate of 2° C./min.

[4] = Stability of trisulfides in vivo in rats after intraperitoneal injection; details: rat, 100 mg/kg intraperitoneally, based on column recoveries
Procedure: The samples were incubated with 100 μL of the resin for 2 h at room temperature with mild agitation. The resin was then washed six times with 0.5 mL of PBS and six times with 0.5 mL of 25 mM sodium phosphate, 100 mM NaCl, pH 5.5, after which the bound antibody was eluted with 25 mM sodium phosphate, pH 2.8, 100-mM NaCl. […] Portions of the serum (750 μL for the 24-h point, and 1050 μL for the 72-h point) were subjected to IgSelect purification using 150 μL of IgSelect (protocol described above).

Molecule | Release of hydrogen sulfide [1] | other results
O=CC(O)CO (racemic) [DL-glyceraldehyde] | functionally stopped release of hydrogen sulfide | 
CCOC(=O)C(C)=O [ethyl pyruvate] | functionally stopped release of hydrogen sulfide | 
O=CC(=O)O [glyoxylic acid] | functionally stopped release of hydrogen sulfide | 
COC(=O)C(C)=O [methyl pyruvate] | functionally stopped release of hydrogen sulfide | 
mAb1: anti-LINGO-1 antibody Li81, human IgG1 produced in CHO cells |  | Sensitivity to heat treatment (fragmentation to HHL species) [2]: increased sensitivity to extreme heat treatment; Transition temperature profiles [3]: no differences in transition temperature profiles detected; Level of mAb1 in the serum ([4]; after 24 h): 850 µg/mL; Level of mAb1 in the serum ([4]; after 72 h): 700 µg/mL
